Values quoted from earlier work in paper PMC2760809 (Nucleic Acids Research, 2009).

Biological target: many RNA molecules, including HIV TAR RNA and group I introns
Conditions: read-out: Kd of arginine for RNA molecules

SMILES: N=C(N)NCCC[C@H](N)C(=O)O [Arginine]
- Kd: > 2000 µM
